SMILES strings stand for the structures. Values after ≈ are worked out from the molar mass of the structure shown. Active and inactive are the calls of the source. No cut-off for these calls is given here.

Data on two compounds can be found in ChEMBL document CHEMBL3045745, “Antioxidant activity and inhibition effect on the growth of human colon carcinoma (HT-29) cells of esculetin from Cortex Fraxini” (Med Chem Res, 2011).

Series [1] in a line: Antioxidant activity assessed as reduction of Mo(6) in phophomolybdenum at 0.5 mg/ml after 150 min by spectrophotometric analysis. Type of series: functional.
A short description of series [2]: Antioxidant activity assessed as potassium ferricyanide reduction at 0.5 mg/ml after 20 min by spectrophotometric analysis. Type of series: functional.
The nature of series [3]: Antioxidant activity assessed as hydroxyl radical scavenging by resonance scattering method. Type of series: functional.
Series [4] is described as follows: Antioxidant activity assessed as potassium ferricyanide reduction at 0.05 mg/ml after 20 min by spectrophotometric analysis. Type of series: functional.
Series [5] has as its system Radical scavenging activity. Kind of series: Antioxidant activity assessed as DPPH radical scavenging at 0.5 mg/ml measured at 50 min by spectrophotometric analysis relative to control. Type of series: functional. In general terms: The DPPH test is a chemical assay of radical scavenging.
Series [6] is described as follows: Antioxidant activity assessed as reduction of Mo(6) in phophomolybdenum at 0.1 mg/ml after 150 min by spectrophotometric analysis. Type of series: functional.
For series [7], the system named is HT-29. Kind of series: Growth inhibition of Homo sapiens (human) HT-29 cells assessed as inhibition of [3H]hypoxanthine incorporation at higher concentration incubated for 18 hr prior to [3H]hypoxanthine addition measured after 4 to 6 hr. Type of series: functional, cell-based.
The subject of series [8] is Radical scavenging activity. Kind of series: Antioxidant activity assessed as DPPH radical scavenging at 0.02 mg/ml measured at 50 min by spectrophotometric analysis relative to control. Type of series: functional.
The subject of series [9] is HT-29. Nature of the series: Induction of Homo sapiens (human) HT-29 cell proliferation assessed as [3H]hypoxanthine incorporation at 0.25 to 2 mg/ml incubated for 18 hr prior to [3H]hypoxanthine addition measured after 4 to 6 hr. Type of series: cell-based.
Series [10] deals with Radical scavenging activity. Nature of the series: Antioxidant activity assessed as DPPH radical scavenging at 0.02 to 0.1 mg/ml measured within 10 min by spectrophotometric analysis. Type of series: functional.
Series [11] concerns Radical scavenging activity. Nature of the series: Antioxidant activity assessed as DPPH radical scavenging at 0.05 mg/ml measured at 50 min by spectrophotometric analysis relative to control. Type of series: functional.
Series [12] deals with Radical scavenging activity. Nature of the series: Antioxidant activity assessed as DPPH radical scavenging at 0.08 mg/ml measured at 50 min by spectrophotometric analysis relative to control. Type of series: functional.

A word on the IC50: it is the concentration needed to halve the response being measured. In the case of `Cc1cc(C(C)(C)C)c(O)c(C(C)(C)C)c1` [BUTYLATED HYDROXYTOLUENE], the outcome in series [1], in series [2] and in series [4] was Active. The IC50 in series [3] was 2.883 mg/L (≈ 13.1 µM). Further, in series [5], the Activity was determined as 47.6%.
As to `O=c1ccc2cc(O)c(O)cc2o1` [ESCULETIN], the outcome in series [2], in series [6], in series [10] and in series [4] was Active. Moreover, in [3], the IC50 worked out at 0.091 mg/L (≈ 0.511 µM). Also, the “growth inhibition (GI)” value in the series with HT-29 [7] is “Dose-dependent effect”. In addition, the Activity in series [8] was 28.1%; with HT-29 [9] it was “Toxic”; in series [11] it was 59.9%; in series [12], 79.7%.
